# In US10688082B2, “Aminopyrazine compounds with A2A antagonist properties” (Merck Sharp & Dohme Corp., priority 2015, dated 2020):
# Target: T1, human A2a receptor (Homo sapiens, UniProt P29274)
# T1 construct: purchased Perkin-Elmer RBHA2AM400UA; host or cells: HEK293 cells (membranes)
# Assay: Competition binding assay using Scintillation Proximity technology (A2a activity)
# Description: Binding affinities of compounds of the invention for the human A2a receptor were determined in a competition binding assay using Scintillation Proximity technology. Thus, […] from HEK293 cells expressing the human A2a receptor were incubated with a compound of the invention at concentrations ranging from 3000 nM to 0.15 nM in a reaction mixture containing also 0.5 nM of a tritiated form of 5-amino-7-[2-phenethyl]-2-(furan-2-yl)-7H-pyrazolo[4,3-e][1,2,4]triazolo[1,5-c]pyrimidine (the tritiated compound) and 100 μg of wheat germ agglutin-coated yttrium silicate SPA beads for one hour at room temperature with agitation. The beads were then allowed to settle to the bottom of the wells for 1 hr, after which the membrane-associated radioactivity was determined by scintillation counting in a TopCount microplate reader. Ki values were determined using the Cheng-Prusoff equation.
# HEK293 cells expressing the human, rat, dog or monkey adenosine 2a receptor (Purchased from Perkin-Elmer # RBHA2AM400UA).
# The Tritiated compound was prepared according to published methods.
# Wheat germ agglutinin-coated yttrium silicate SPA beads (GE Healthcare # RPNQ0023). Dilute to 25 mg/ml in assay buffer.
# Assay Buffer was prepared using Dulbecco's calcium and magnesium free phosphate buffered saline+10 mM MgCl2
# Adenosine deaminase from calf intestine, 10 mg/2 ml (Roche #10 102 105 001).
# A2a antagonist standard (9-chloro-1-(2-furanyl)-[1,2,4]triazolo1,5-c]quinazolin-5-amine from Tocris Bioscience)
# Make eight 1:3 serial dilutions in 100% DMSO from a 3 mM compound stock
# Transfer 50 nl of compound into a 384-well OptiPlate (Perkin Elmer).
# Typically, final concentrations of compound used in the assay ranged from 3000 nM to 0.152 nM.
# Dilute a solution of the Tritiated compound to 1.25 nM in assay buffer. This is a 2.5× solution. The final concentration in the assay is 0.5 nM. Calculate the concentration by counting two 5 μl aliquots.
# Use 0.25 ug of membrane/well. Dilute membranes to 9.7 μg/ml in assay buffer. Treat with 20 ug/ml adenosine deaminase (ADA) for 15 minutes at room temperature to degrade endogenous adenosine.
# Use 100 μg/well wheat germ agglutinin-coated yttrium silicate SPA beads.
# Mix ADA-treated membranes and SPA beads together for 30 min prior to assay.
# To the Perkin-Elmer Optiplate-384 containing the compound titration add 20 μl of 2.5× solution of the Tritiated compound and 30 μl of the membrane-bead mixture. Incubate for one hour at room temperature with agitation.
# Include total binding (assay buffer+1% DMSO) and non-specific binding (CGS15943, 1 μM) wells.
# Allow the beads to settle for one hour.
# A curve fitting program (i.e., Prism, Activity Base, Chemcart) is used to determine the EC50. The Ki value is calculated using the Cheng-Prusoff equation. K i=EC50/(1+(radioligand concentration/Kd))
# [1] = membranes from HEK293 cells expressing the human A2a receptor, 0.5 nM tritiated ligand, Cheng-Prusoff
# T1 sequence (P29274 whole entry): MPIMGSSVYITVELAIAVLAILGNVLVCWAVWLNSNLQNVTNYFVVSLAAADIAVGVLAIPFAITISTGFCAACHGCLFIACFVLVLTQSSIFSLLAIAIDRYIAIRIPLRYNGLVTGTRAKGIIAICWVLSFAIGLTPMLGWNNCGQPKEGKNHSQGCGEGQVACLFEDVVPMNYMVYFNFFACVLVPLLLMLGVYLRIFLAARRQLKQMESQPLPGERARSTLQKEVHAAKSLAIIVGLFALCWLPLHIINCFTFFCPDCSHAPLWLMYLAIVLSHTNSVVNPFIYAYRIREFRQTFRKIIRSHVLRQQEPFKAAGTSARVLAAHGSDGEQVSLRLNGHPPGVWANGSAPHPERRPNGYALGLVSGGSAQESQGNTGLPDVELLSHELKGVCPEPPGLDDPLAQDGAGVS
SMILES,Ki [1] [nM],Ki (same protocol) [nM]
"COc1cccc2c1nc(N)n1nc(Cc3cccc4[nH]ccc34)cc21 [Ex-41, 2-((1H-indol-4-yl)methyl)-7-methoxypyrazolo[1,5-c]quinazolin-5-amine]",5,
"COc1cccc2c1nc(N)n1nc(Cc3c(F)cccc3F)cc21 [Ex-42, 2-(2,6-difluorobenzyl)-7-methoxypyrazolo[1,5-c]quinazolin-5-amine]",3,
"COc1cccc2c1nc(N)n1nc(Cc3cccc(Cl)c3Cl)cc21 [Ex-43, 2-(2,3-dichlorobenzyl)-7-methoxypyrazolo[1,5-c]quinazolin-5-amine]",80,
"COc1cccc2c1nc(N)n1nc(Cc3ccccc3OC(F)(F)F)cc21 [Ex-46, 7-methoxy-2-(2-(trifluoromethoxy)benzyl)pyrazolo[1,5-c]quinazolin-5-amine]",34,
"COc1cccc2c1nc(N)n1nc(Cc3ccccc3N(C)C)cc21 [Ex-47, 2-(2-(dimethylamino)benzyl)-7-methoxypyrazolo[1,5-c]quinazolin-5-amine]",1,
"COCc1cccc(Cc2cc3c4cccc(OC)c4nc(N)n3n2)c1 [Ex-48, 7-methoxy-2-(3-(methoxymethyl)benzyl)pyrazolo[1,5-c]quinazolin-5-amine]",40,
"COc1cccc2c1nc(N)n1nc(Cc3cccc(Cl)c3)cc21 [Ex-49, 2-(3-chlorobenzyl)-7-methoxypyrazolo[1,5-c]quinazolin-5-amine]",35,
"COc1cccc2c1nc(N)n1nc(Cc3cccc4c3CNC4=O)cc21 [Ex-56, 4-((5-amino-7-methoxypyrazolo[1,5-c]quinazolin-2-yl)methyl)isoindolin-1-one]",49,
"COc1cccc2c1nc(N)n1nc(Cc3cccc(-n4cccn4)c3)cc21 [Ex-58, 2-(3-(1H-pyrazol-1-yl)benzyl)-7-methoxypyrazolo[1,5-c]quinazolin-5-amine]",69,
"COc1cccc2c1nc(N)n1nc(Cc3cccc(C#N)c3F)cc21 [Ex-61, 3-((5-amino-7-methoxypyrazolo[1,5-c]quinazolin-2-yl)methyl)-2-fluorobenzonitrile]",21,
"COc1cccc2c1nc(N)n1nc(Cc3cc(Cl)cc(C#N)c3)cc21 [Ex-62, 3-((5-amino-7-methoxypyrazolo[1,5-c]quinazolin-2-yl)methyl)-5-chlorobenzonitrile]",134,
"COc1cccc2c1nc(N)n1nc(Cc3ccccc3-n3cccn3)cc21 [Ex-63, 2-(2-(1H-pyrazol-1-yl)benzyl)-7-methoxypyrazolo[1,5-c]quinazolin-5-amine]",7,
"COc1cccc2c1nc(N)n1nc(Cc3cc(F)cc(F)c3)cc21 [Ex-65, 2-(3,5-difluorobenzyl)-7-methoxypyrazolo[1,5-c]quinazolin-5-amine]",5,
"COc1cccc2c1nc(N)n1nc(C(=O)N3CCCCC3)cc21 [Ex-72, (5-amino-7-methoxypyrazolo[1,5-c]quinazolin-2-yl)(piperidin-1-yl)methanone]",37,
"COc1cccc2c1nc(N)n1nc(C(=O)N3CCCC3)cc21 [Ex-74, (5-amino-7-methoxypyrazolo[1,5-c]quinazolin-2-yl)(pyrrolidin-1-yl)methanone]",5,

# More lines, now with the values ahead:
Ki [1] [nM],Ki (same protocol) [nM],SMILES
18,,"COc1cccc2c1nc(N)n1nc(Cc3cccc4cnccc34)cc21 [Ex-44, 2-(isoquinolin-5-ylmethyl)-7-methoxypyrazolo[1,5-c]quinazolin-5-amine]"
10,,"COc1cccc2c1nc(N)n1nc(Cc3ccccc3Cl)cc21 [Ex-45, 2-(2-chlorobenzyl)-7-methoxypyrazolo[1,5-c]quinazolin-5-amine]"
2,,"COc1cccc2c1nc(N)n1nc(Cc3ccccc3C#N)cc21 [Ex-50, 2-((5-amino-7-methoxypyrazolo[1,5-c]quinazolin-2-yl)methyl)benzonitrile]"
128,,"COc1cccc2c1nc(N)n1nc(Cc3ccccc3OCc3ccccc3)cc21 [Ex-51, 2-(2-(benzyloxy)benzyl)-7-methoxypyrazolo[1,5-c]quinazolin-5-amine]"
33,,"COc1cccc2c1nc(N)n1nc(Cc3cccc(C#N)c3)cc21 [Ex-52, 3-((5-amino-7-methoxypyrazolo[1,5-c]quinazolin-2-yl)methyl)benzonitrile]"
48,,"COc1cccc2c1nc(N)n1nc(Cc3cccc4ccsc34)cc21 [Ex-53, 2-(benzo[b]thiophen-7-ylmethyl)-7-methoxypyrazolo[1,5-c]quinazolin-5-amine]"
139,,"COc1cccc2c1nc(N)n1nc(Cc3cccc(-n4nc(C)cc4C)c3)cc21 [Ex-54, 2-(3-(3,5-dimethyl-1H-pyrazol-1-yl)benzyl)-7-methoxypyrazolo[1,5-c]quinazolin-5-amine]"
10,,"COc1cccc2c1nc(N)n1nc(Cc3ccccc3OC(F)F)cc21 [Ex-55, 2-(2-(difluoromethoxy)benzyl)-7-methoxypyrazolo[1,5-c]quinazolin-5-amine]"
165,,"COc1cccc2c1nc(N)n1nc(Cc3cccc4nc(C)ccc34)cc21 [Ex-57, 7-methoxy-2-((2-methylquinolin-5-yl)methyl)pyrazolo[1,5-c]quinazolin-5-amine]"
21,,"COc1cccc2c1nc(N)n1nc(Cc3cccc(F)c3C)cc21 [Ex-59, 2-(3-fluoro-2-methylbenzyl)-7-methoxypyrazolo[1,5-c]quinazolin-5-amine]"
22,,"COc1cccc2c1nc(N)n1nc(Cc3cccc4ccc(C)nc34)cc21 [Ex-60, 7-methoxy-2-((2-methylquinolin-8-yl)methyl)pyrazolo[1,5-c]quinazolin-5-amine]"
2,,"COc1cccc2c1nc(N)n1nc(Cc3cc(F)ccc3F)cc21 [Ex-64, 2-(2,5-difluorobenzyl)-7-methoxypyrazolo[1,5-c]quinazolin-5-amine]"
145,,"COc1cccc2c1nc(N)n1nc(CN3CCN(c4ccccc4)CC3)cc21 [Ex-66, 7-methoxy-2-((4-phenylpiperazin-1-yl)methyl)pyrazolo [1,5-c]quinazolin-5-amine]"
473,,"COc1cccc2c1nc(N)n1nc(CN3CC(O)C3)cc21 [Ex-67, 1-((5-amino-7-methoxypyrazolo[1,5-c]quinazolin-2-yl)methyl)azetidin-3-ol]"
24,,"COc1cccc2c1nc(N)n1nc(CN3Cc4ccc(F)cc4C3)cc21 [Ex-68, 2-((5-fluoroisoindolin-2-yl)methyl)-7-methoxypyrazolo[1,5-c]quinazolin-5-amine]"
14,,"COc1cccc2c1nc(N)n1nc(CN3Cc4cccnc4C3)cc21 [Ex-69, 2-((5,7-dihydro-6H-pyrrolo[3,4-b]pyridin-6-yl)methyl)-7-methoxypyrazolo[1,5-c]quinazolin-5-amine]"
,7,"COc1cccc2c1nc(N)n1nc(C(=O)N3CCN(c4ccccn4)CC3)cc21 [Ex-70, (5-amino-7-methoxypyrazolo[1,5-c]quinazolin-2-yl)(4-(pyridin-2-yl)piperazin-1-yl)methanone]"
11,,"COc1cccc2c1nc(N)n1nc(C(=O)N3CCN(Cc4ccccc4)CC3)cc21 [Ex-71, (5-amino-7-methoxypyrazolo[1,5-c]quinazolin-2-yl)(4-benzylpiperazin-1-yl)methanone]"
11,,"COc1cccc2c1nc(N)n1nc(C(=O)N3CCN(Cc4ccc(F)cc4)CC3)cc21 [Ex-73, (5-amino-7-methoxypyrazolo[1,5c]-quinazolin-2-yl)(4-(4-fluorobenzyl)-piperazin-1-yl)methanone]"
